Values of other authors as cited in paper PMC10205807, “Cross-species comparison in nonclinical pharmacokinetics of lenvatinib by a simple HPLC with ultraviolet detection” (Scientific Reports, 2023).
Read-outs that look alike come from different tables or passages of the source.

How the values were obtained:
[1] = design: method as in PMID 29620050; settings: male rats, intravenous; cited from earlier work
[2] = design: method as in PMID 29620050; settings: dogs, intravenous; cited from earlier work
[3] = design: method as in PMID 30514402; settings: mice; cited from earlier work
[4] = design: method as in PMID 30514402; settings: dogs; cited from earlier work
[5] = design: method as in PMID 30514402; settings: monkeys; cited from earlier work
[6] = design: method as in PMID 28115222; settings: mice; cited from earlier work
[7] = design: method as in PMID 28115222; settings: rats; cited from earlier work
[8] = design: method as in PMID 28115222; settings: dogs; cited from earlier work

## COc1cc2c(Oc3ccc4[nH]c(C)cc4c3F)ccnc2cc1OCC1(N)CC1 [anlotinib]
[1]
  CLtot: 106 mL/min/kg
  Vdss: 25.4 L/kg
[2]
  CLtot: 6.33 mL/min/kg
  Vdss: 6.8 L/kg

## Cc1cn(-c2cc(NC(=O)c3ccc(C)c(Nc4nccc(-c5cccnc5)n4)c3)cc(C(F)(F)F)c2)cn1 [nilotinib]
[3]
  CLtot: 2.18 mL/min/kg
  Oral bioavailability: 50%
  Vdss: 0.29 L/kg
[4]
  CLtot: 3.17 mL/min/kg
  Oral bioavailability: 24%
  Vdss: 1.157 L/kg
[5]
  CLtot: 10.6 mL/min/kg
  Oral bioavailability: 16%
  Vdss: 5.737 L/kg

## CCOc1cc2ncc(C#N)c(Nc3ccc(OCc4ccccn4)c(Cl)c3)c2cc1NC(=O)/C=C/[C@H]1CCCN1C [pyrotinib]
[6]
  CLtot: 37.2 mL/min/kg
  F: 20.6%
  Vdss: 5.027 L/kg
[7]
  CLtot: 3.5 mL/min/kg
  F: 43.5%
  Vdss: 1.35 L/kg
[8]
  CLtot: 28 mL/min/kg
  F: 20.0%
  Vdss: 8.157 L/kg
